Source: US5455271A, “Tight-binding inhibitors of leukotriene A4 hydrolase” (The Scripps Research Institute, priority 1993, dated 1995)
Entries after “also recorded” stand apart in the source; their conditions may differ. Structures can show the parent of a compound that is named as a salt. Where two headings read alike, the source gives them in different places.

Experiments:
[1] = target: T1, LTA4 hydrolase (epoxide hydrolase activity) (Homo sapiens, UniProt P09960); test: Inhibition of epoxide hydrolase activity of LTA4 hydrolase, LTA4 as substrate; type: biochemical
T1 construct: obtained from human leukocytes and was purified to apparent homogeneity; from tissue; host or cells: human leukocytes (purified to apparent homogeneity)
T1 sequence (P09960 1-611): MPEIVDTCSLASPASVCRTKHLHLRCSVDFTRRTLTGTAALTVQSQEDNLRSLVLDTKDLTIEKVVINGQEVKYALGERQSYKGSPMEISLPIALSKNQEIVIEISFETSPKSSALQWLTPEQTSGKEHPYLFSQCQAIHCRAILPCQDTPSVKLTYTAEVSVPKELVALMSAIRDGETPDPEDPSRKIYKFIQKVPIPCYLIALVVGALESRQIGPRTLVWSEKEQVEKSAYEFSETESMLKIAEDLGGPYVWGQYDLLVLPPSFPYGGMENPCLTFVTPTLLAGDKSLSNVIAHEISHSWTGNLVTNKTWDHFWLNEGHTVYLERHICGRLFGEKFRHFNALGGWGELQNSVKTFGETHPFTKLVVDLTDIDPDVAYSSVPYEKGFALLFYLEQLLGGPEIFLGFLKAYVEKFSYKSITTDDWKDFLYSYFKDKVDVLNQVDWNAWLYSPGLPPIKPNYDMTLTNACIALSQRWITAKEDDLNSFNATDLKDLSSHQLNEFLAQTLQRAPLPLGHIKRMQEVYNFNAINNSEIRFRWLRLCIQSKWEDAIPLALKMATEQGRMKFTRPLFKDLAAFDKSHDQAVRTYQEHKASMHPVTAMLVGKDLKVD

LTA4 hydrolase [2] = target: T2, LTA4 hydrolase (Homo sapiens, UniProt P09960); conditions: literature; cited from earlier work
T2 sequence (P09960 1-611): T1 sequence (P09960 1-611)

LTA4 hydrolase [3] = target: T2, LTA4 hydrolase; test: Inhibition of LTA4 hydrolase, amidase (aminopeptidase) activity, L-alanyl p-nitroanilide as substrate; type: biochemical; set-up: LTA4 hydrolase purified from human leukocytes; from tissue; host or cells: human leukocytes (purified enzyme); conditions: for Ki: Dixon plot
Leukotriene B4 (LTB4) = test: Inhibition of leukotriene B4 (LTB4) in calcium ionophore A-23187-stimulated human blood; type: cell-based; conditions: Homo sapiens
Thromboxane B2 (TXB2) = test: Inhibition of thromboxane B2 (TXB2) in calcium ionophore A-23187-stimulated human blood; type: cell-based
[4] = target: cytosolic leucine aminopeptidase; test: Inhibition of cytosolic leucine aminopeptidase; type: biochemical
LTA4 hydrolase [5] = target: T2, LTA4 hydrolase; test: Kinetic parameters of LTA4 hydrolase-catalyzed hydrolysis of LTA4 and amide substrates; type: biochemical
Procedure: Several amino acid amides were assayed as substrates for LTA4 hydrolase. Yuan et al., Bioorg. & Med. Chem. Lett., 1:551 (1991).
^a Determined in 50 mM TrisCl, pH 7.6, in the presence of 0.1 M NaCl, […]

[6] = Table 4, read-out: % Inhibition LTB4
[7] = Table 5, read-out: IC50 Epoxide Hydrolase
[8] = Table 4, 10 μM, read-out: % Inhibition TXB2
[9] = L-alanyl p-nitroanilide 1.5 mM, pH 8.0
[10] = Table 3, read-out: % Inhibition LTB4
[11] = Table 3, 1 μM, read-out: % Inhibition TXB2
[12] = Table 3, 3 μM, read-out: % Inhibition TXB2
[13] = Table 3, 10 μM, read-out: % Inhibition TXB2
[14] = L-alanyl p-nitroanilide 1.5 mM, pH 8.0, thiols with 5 mM DTT
[15] = read-out: % Inhibition LTB4, Table 3

C[C@H](CS)C(=O)N1CCC[C@H]1C(=O)O [Captopril, reference compound]
IC50 [1]: 240 µM | inhibition of LTA4 hydrolase, type of inhibition (in words) (LTA4 hydrolase [2]): reversible inhibitors

COC(=O)[C@H](O)[C@H](N)Cc1ccccc1 [Compound 4, (2R, 3R)-AHPA methyl ester]
inhibition of LTA4 hydrolase (in words) (LTA4 hydrolase [3]): poor or no inhibition

COC(=O)C(S)[C@H](N)Cc1ccccc1 (some centres unmarked) [Compound 12]
inhibition of LTA4 hydrolase (in words) (LTA4 hydrolase [3]): poor inhibitors

N[C@@H](Cc1ccccc1)C(=O)Cc1ccccc1 [Compound 30]
inhibition at 10 µM (Leukotriene B4 (LTB4); [6]): 15% | IC50 [1, 7]: > 100 µM | inhibition at 10 µM (Thromboxane B2 (TXB2); [8]): 6% | Ki (LTA4 hydrolase [3]; [9]): 14 µM

CC(C)C[C@H](NC(=O)[C@@H](O)[C@@H](N)Cc1ccccc1)C(=O)O [Compound 7, (2S, 3S)-AHPA-L-Leu]
inhibition at 3 µM (Leukotriene B4 (LTB4); [10]): 10% | inhibition at 10 µM (Leukotriene B4 (LTB4); [10]): 37% | inhibition at 10 µM (Leukotriene B4 (LTB4); [6]): 25% | inhibition at 1 µM (Thromboxane B2 (TXB2); [11]): 21% | inhibition at 3 µM (Thromboxane B2 (TXB2); [12]): 15% | inhibition at 10 µM (Thromboxane B2 (TXB2); [13]): 24% | inhibition at 10 µM (Thromboxane B2 (TXB2); [8]): 0%

N[C@H](Cc1ccccc1)[C@H](O)C(=O)O [Compound 6, (2S,3R)-AHPA]
inhibition of LTA4 hydrolase (in words) (LTA4 hydrolase [3]): loss of their inhibition potency

COC(=O)[C@@H](O)[C@@H](N)Cc1ccccc1 [Compound 2, (2S, 3S)-AHPA methyl ester]
Ki (LTA4 hydrolase [3]; [9]): 50 µM

COC(=O)[C@@H](O)[C@@H](N)Cc1ccc(OCc2ccccc2)cc1 [Compound 23]
IC50 (LTA4 hydrolase [3]; [14]): 20 µM

CC/C=C\C/C=C\C\C=C/C=C/C=C/[C@@H]1O[C@H]1CCCC(=O)O [LTA5]
inhibition of LTA4 hydrolase, type of inhibition (in words) (LTA4 hydrolase [2]): irreversibly inhibited

N[C@@H](Cc1ccc(OCc2ccccc2)cc1)C(=O)C(=O)OCc1ccccc1 [Compound 26]
inhibition at 1 µM (Leukotriene B4 (LTB4); [15]): 15% | inhibition at 3 µM (Leukotriene B4 (LTB4); [15]): 17% | inhibition at 10 µM (Leukotriene B4 (LTB4); [15]): 24% | inhibition at 1 µM (Thromboxane B2 (TXB2); read-out: % Inhibition TXB2, Table 3, 1 μM): 8% | inhibition at 3 µM (Thromboxane B2 (TXB2); read-out: % Inhibition TXB2, Table 3, 3 μM): 7% | inhibition at 10 µM (Thromboxane B2 (TXB2); read-out: % Inhibition TXB2, Table 3, 10 μM): 28% | IC50 [4]: > 100 µM

N[C@@H](Cc1ccc(OCc2ccccc2)cc1)C(=O)CCCc1ccccc1 [Compound 54, (2S)-1-[4-(Benzyloxy)phenyl]-6-phenyl-2-amino-3-oxo-hexane HCl]
IC50 (LTA4 hydrolase [3]; [9]): 0.03 µM

CC(C)C[C@H](NC(=O)C(=O)[C@@H](N)Cc1ccccc1)C(=O)O [Compound 22]
inhibition of LTA4 hydrolase (in words) (LTA4 hydrolase [3]): better than the corresponding α-(S)--OH derivative Compound 7 | IC50 (LTA4 hydrolase [3]; [14]): 0.5 µM

N[C@@H](Cc1ccccc1)[C@H](O)C(=O)OCc1ccccc1 [Compound 20]
IC50 [1, 7]: 100 µM | inhibition of LTA4 hydrolase (in words) (LTA4 hydrolase [3]): bound more tightly than the amide | IC50 (LTA4 hydrolase [3]; [14]): 0.8 µM

N[C@@H](Cc1ccccc1)[C@H](O)C(=O)NCCC(=O)O [Compound 10, (2S, 3S) -AHPA-β-Ala]
inhibition at 1 µM (Leukotriene B4 (LTB4); [10]): 14% | inhibition at 3 µM (Leukotriene B4 (LTB4); [10]): 39% | inhibition at 10 µM (Leukotriene B4 (LTB4); [10]): 15% | inhibition at 1 µM (Thromboxane B2 (TXB2); [11]): 12% | inhibition at 3 µM (Thromboxane B2 (TXB2); [12]): 21% | inhibition at 10 µM (Thromboxane B2 (TXB2); [13]): 19% | IC50 (LTA4 hydrolase [3]; [14]): 80 µM

N[C@@H](Cc1ccccc1)[C@H](O)Cc1ccccc1 [Compound 44, (2R, 3S)-1,4-Diphenyl-2-hydroxy-3-amino-butane HCl]
IC50 (LTA4 hydrolase [3]; [14]): 140 µM

NC(Cc1ccccc1)P(=O)(O)NCC(=O)O (centres unmarked) [Compound 16]
inhibition of LTA4 hydrolase (in words) (LTA4 hydrolase [3]): a much weaker inhibitor than Compound 8

COC(=O)C(=O)[C@@H](N)Cc1ccccc1 [Compound 21]
inhibition at 10 µM (Leukotriene B4 (LTB4); [6]): 8% | inhibition at 10 µM (Thromboxane B2 (TXB2); [8]): 0% | inhibition of LTA4 hydrolase (in words) (LTA4 hydrolase [3]): comparable with Compound 2 | IC50 (LTA4 hydrolase [3]; [14]): 80 µM

CCOC(=O)C(F)(F)C(=O)c1nc[nH]c1C [Compound 18]
inhibition of the enzyme at 1 mM concentration (in words) (LTA4 hydrolase [3]): did not inhibit the enzyme | IC50 (LTA4 hydrolase [3]; footnote d: less than 10 percent inhibition was observed at this concentration): > 1000 µM

COC(=O)C(S)[C@@H](N)Cc1ccccc1 (some centres unmarked) [Compound 11]
inhibition of LTA4 hydrolase (in words) (LTA4 hydrolase [3]): poor inhibitors

COC(=O)[C@@H](O)[C@H](Cc1ccccc1)NC(=O)OC(C)(C)C [N-Boc-2S, 3S)-AHPA methyl ester, N-Boc-(2S, 3S) -AHPA methyl ester]
inhibition of LTA4 hydrolase (in words) (LTA4 hydrolase [3]): no inhibition activity

CCCCCCCC\C=C/C=C/C=C/[C@@H]1O[C@H]1CCCC(=O)O [LTA3]
inhibition of LTA4 hydrolase, type of inhibition (in words) (LTA4 hydrolase [2]): irreversibly inhibited

N[C@@H](Cc1ccc(OCc2ccccc2)cc1)C(=O)c1ccc(C(F)(F)F)cc1 [Compound 29]
IC50 [1, 7]: > 100 µM | inhibition at 10 µM (Thromboxane B2 (TXB2); [8]): 0% | IC50 (LTA4 hydrolase [3]; [14]): 10 µM

N[C@@H](Cc1ccccc1)[C@H](O)C(=O)NCC(=O)O [Compound 8, (2S, 3S) -AHPA-Gly]
Ki (LTA4 hydrolase [3]; [9]): 15 µM | IC50 (LTA4 hydrolase [3]; [14]): 15 µM

N[C@@H](Cc1ccccc1)C(=O)CCCC(=O)O [Compound 45, (6S) -5-Oxo-6-amino-7-phenyl-heptanoic acid HCl]
inhibition at 10 µM (Leukotriene B4 (LTB4); [6]): 11% | inhibition at 10 µM (Thromboxane B2 (TXB2); [8]): 12% | IC50 (LTA4 hydrolase [3]; [14]): 20 µM

C[C@@H](N)C(=O)Nc1ccc([N+](=O)[O-])cc1 [D-Ala p-nitroanilide, D-Alanine p-nitroanilide]
acceptance as substrate for LTA4 hydrolase (in words) (LTA4 hydrolase [5]): not acceptable | Vmax (LTA4 hydrolase [5]; Table 1, 50 mM TrisCl, pH 7.6, 0.1 M NaCl): 0 nmol/min/mg

N[C@@H](Cc1ccccc1)[C@H](O)C(=O)O [Compound 5, (2S,3S)-AHPA]
inhibition of LTA4 hydrolase (in words) (LTA4 hydrolase [3]): loss of their inhibition potency

COC(=O)[C@H](O)[C@@H](N)Cc1ccccc1 [Compound 1, (2R, 3S)-AHPA methyl ester]
inhibition of LTA4 hydrolase (in words) (LTA4 hydrolase [3]): poor or no inhibition

C[C@H](N)C(=O)Nc1ccc([N+](=O)[O-])cc1 [L-Ala p-nitroanilide, L-alanine p-nitroanilide]
acceptance as substrate for LTA4 hydrolase (in words) (LTA4 hydrolase [5]): the best

NC(CSSCC(N)Cc1ccc(OCc2ccccc2)cc1)Cc1ccc(OCc2ccccc2)cc1 [Compound 27a, Di-((2S)-3-[4-(benzyloxy)phenyl]-2-amino-propane)-disulphide HCl]
inhibition at 10 µM (Leukotriene B4 (LTB4); [6]): 100% | IC50 (Leukotriene B4 (LTB4); concentrations of about 0.3-10 μM, readout not restated, read-out: IC50 in this assay (human blood)): ~0.81 µM | inhibition at 10 µM (Thromboxane B2 (TXB2); [8]): 24%

N[C@@H](Cc1ccc(OCc2ccccc2)cc1)C(=O)c1cccc(C(=O)O)c1 [Compound 28]
inhibition at 10 µM (Leukotriene B4 (LTB4); [6]): 16% | inhibition at 10 µM (Thromboxane B2 (TXB2); [8]): 0% | IC50 (LTA4 hydrolase [3]; [14]): 3 µM

CC(C)C[C@H](NC(=O)[C@@H](O)[C@H](N)Cc1ccccc1)C(=O)O [Bestatin]
inhibition of LTA4 hydrolase, type of inhibition (in words) (LTA4 hydrolase [2]): reversible inhibitors

CCOC(=O)CC(F)(F)C(=O)/C=C/c1ccccc1 [Compound 17]
inhibition of the enzyme at 1 mM concentration (in words) (LTA4 hydrolase [3]): did not inhibit the enzyme

NC[C@@H](N)Cc1ccc(OCc2ccc3ccccc3c2)cc1 [Compound 60, (2S) -3-[4-(2-Naphthylmethyloxy)phenyl]-1,2-diamino-propane HCl]
IC50 (LTA4 hydrolase [3]; [14]): 0.55 µM

N[C@H](Cc1ccccc1)[C@H](O)C(=O)NCCC(=O)O [Compound 9]
IC50 (LTA4 hydrolase [3]; [14]): 100 µM

COC(=O)[C@@H](O)[C@H](N)Cc1ccccc1 [Compound 3, (2S, 3R)-AHPA methyl ester]
inhibition of LTA4 hydrolase (in words) (LTA4 hydrolase [3]): poor or no inhibition; also recorded: exhibited no activity
